In US6949516B2, “Dipeptide apoptosis inhibitors and the use thereof” (Cytovia, Inc., priority 1997, dated 2005):
pIC50: −log10 of the molar value.

Columns and labels:
HeLa cells = assay: Cell death assay with HeLa cells, qualitative (phase contrast microscopy), TNF-α/CHX challenge; format: cell-based; settings: for cytoprotection of HeLa cells from apoptotic effects of TNF-α and CHX (microscopy): 24 hour incubation
Description: The cytoprotective properties of Cbz-Val-Asp(OMe)CH2F were tested using HeLa cells challenged with tumor necrosis factor-alpha (TNF-α) and cycloheximide (CHX). This is a well-characterized cell culture model of apoptosis which is commonly used to analyze anti-apoptotic agents. Two types of experiments were performed: a qualitative assessment of cell death by visualization of the cells using phase contrast microscopy; and a quantitative assessment of cell death using the fluorescent dye calcein AM.
For photomicroscopy, HeLa cells are seeded in 12-well multidishes at a density of 100,000 cells per well in Minimal Essential Medium containing 2 mM glutamine and 10% fetal bovine serum. 24 hours later the plating medium is removed and fresh medium is added containing the cytoprotective test compound at various concentrations. The cells are pre-incubated with test compound for 2 hours at 37° C. in a CO2 incubator and then TNF-α and CHX are added at final concentrations of 25 ng/mL and 30 μg/mL, respectively. After a 24 hour incubation period, the cells are examined visually for evidence of cell death based on cell shape and degree of adherence. Cells are considered dead if they have become rounded up and phase bright and have detached from the substratum. Cells are considered alive if they have retained their normal morphology and remain attached to the substratum.
All of these compounds are the methyl ester derivatives. […] At 50 μM, the related peptides BOC-Asp(OMe)-CH2F (FIG. 1C) and Cbz-Glu(OMe)-Val-Asp(OMe)-CH2F (FIG. 1E) are also protective.

Caspase-7 = target: T1, Caspase-7 (Homo sapiens, UniProt P55210); assay: Recombinant caspase assay with Ac-DEVD-AMC, caspase-7; format: biochemical; settings: 10 μM Ac-DEVD-AMC, 30 minutes at 37° C.
T1 construct: purchased PharMington (PharMingen, a Becton division company, San Diego, Calif.)
T1 sequence (P55210 24-198 limits assumed): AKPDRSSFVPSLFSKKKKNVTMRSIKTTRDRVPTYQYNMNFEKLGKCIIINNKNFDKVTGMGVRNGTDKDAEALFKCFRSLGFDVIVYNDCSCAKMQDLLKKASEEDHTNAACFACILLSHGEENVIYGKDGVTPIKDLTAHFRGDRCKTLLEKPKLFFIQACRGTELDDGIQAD
Description: The inhibitory activity of Cbz-Val-Asp-CH2F in recombinant caspase 3, 6, 7 and 8 obtained from PharMington (a Becton division company, San Diego, Calif.) were measured using Ac-DEVD-AMC (SEQ ID NO:1). The amount of each enzyme per assay was as following: 1 ng caspase3, 15 ng caspase6, 2 ng caspase7 and 60 ng caspase8. The enzyme reaction was conducted in 96-well plate using a caspase buffer (20 mM PIPES, 100 mM NaCl, 10 mM DTT, 1 mM EDTA, 0.1% CHAPS and 10% sucrose, pH 7.2) and the reaction was initiated by adding 10 μM Ac-DEVD-AMC (SEQ ID NO:1) (purchased from Quality Controlled Biochemicals, Inc. Hopkinton, Mass.). Twelve concentrations of Cbz-Val-Asp-CH2F ranged from 30 μM to […] were tested after incubation of the compound with recombinant caspases for 30 minutes at 37° C. […] The data was analyzed using GraphPrism software.

[1] = tested on: rat transient focal ischemia model; assay: Rat transient focal ischemia model; format: in vivo; settings: for reduction of cortical infarction: p<0.05
Text: (i) Preparative Surgery: Male Fischer-344 rats (Harlan Sprague Dawley, Calif.) weighing 200-240 g, were used. Animals were initially anesthetized with 3% halothane in a mixture of 30% oxygen and 70% air. Halothane level were reduced to 1.5% for maintenance of anesthesia throughout surgery. […] (b) Arterial catheter implantation: the femoral artery were cannulated to allow monitoring of the blood pressure, and other physiological conditions include pO2, pCO2, pH, glucose, hematocrite, during ischemia, initial drug administration, and the time of arterial reperfusion. Both arterial and venous catheters were exteriorized through the back of the animal, to allow free movement. (c) A PhysioTel Transmitter (Data Sciences International, Mich.) were implanted into the peritoneal cavity to remotely monitor the body temperature of the animals for 22 hours.
(ii) Physiological parameters: Core body temperature was maintained at 37.5° C. during surgery, using a YSI Reusable Temperature Probe (YSI Co. Inc., Yellow Spring, Ohio) connected to a YSI Temperature Control Unit (Model 73A, YSI Co. Inc., Ohio) and a Electric Heating Pad (Model 756, Sunbean-Oster Co. Inc., Hattiesburg, Miss.). Following ischemia, the PhysioTel Transmitter was activated and core body temperature was recorded every 5 minutes. Systemic blood pressure was monitored throughout surgery, during intravenous drug infusion (bolus), and 1, 2, 3, and 4 hours after the onset of ischemia. Other physiological conditions, including pO2, pCO2, pH, glucose, and hematocrite were examined at the time of arterial occlusion and reperfusion.
(iii) Transient focal ischemia model: Following preparative surgery, a ventral midline cervical incision was made to expose both CCAs. The right CCA was permanently ligated with 4-o silk ligature, while the left CCA was clamped with an atraumatic aneurysm clip. A 1-cm incision perpendicular to and bisecting a line between the lateral canthus of the right eye and the external auditory canal was made. The underlying temporalis muscle was excised and retracted and under direct visualization with the aid of a dissecting microscope (Model SZ-STB1, Olympus, Japan), the middle cerebral artery (MCA) was exposed through a 2 mm burr hole drilled 2-3 mm rostral to the fusion of the zygomatic arch and the squamosal bone. Drilling was done under a continuous irrigation of physiological saline. The dura was cut and retracted to expose the MCA in the rhinal fissure. A Codman micro-aneurysm clip (No. 1) was used to temporarily occlude the MCA as it crosses the rhinal fissure. […] The areas of cortical and subcortical infarction were measured blindly with imaging processing software, and the volume of infarction was calculated by adding up individual measures with known thickness. […]

Row | Compound | cytoprotection of HeLa cells from apoptotic effects of TNF-α and CHX (microscopy) (HeLa cells; 0.5 μM) | cytoprotection of HeLa cells from apoptotic effects of TNF-α and CHX (microscopy) (HeLa cells; 5 μM) | cytoprotection of HeLa cells from apoptotic effects of TNF-α and CHX (microscopy) (HeLa cells; 50 μM) | protective concentration, fold lower than other putative anti-apoptotic agents (HeLa cells; HeLa cells, TNF-α/CHX-induced apoptosis) | pIC50 (Caspase-7) | reduction of cortical infarction ([1]; Experiment 1: rat, 20 mg/kg IV bolus 10 minutes after onset of ischemia + 5 mg/kg/hr IV infusion for 6 h) | reduction of cortical infarction ([1]; Experiment 2: rat, 20 mg/kg IV bolus 10 minutes after onset of ischemia + 5 mg/kg/hr IV infusion for 12 h) | tolerability following acute IV dosing ([1]; rat) | changes in blood pressure, blood gas, or temperature following drug administration ([1]; rat, 20 mg/kg IV bolus + 5 mg/kg/hr infusion)
1 | COC(=O)CC(NC(=O)C(NC(=O)OCc1ccccc1)C(C)C)C(=O)CF (stereo not drawn) [Cbz-Val-Asp(OMe)-CH2F, Z-Val-Asp-fmk Methyl Ester] | still an effective cytoprotectant | surprisingly strong cytoprotective action | completely protects | 10 to 100 fold |  |  |  |  | 
2 | CC(C)[C@H](NC(=O)OCc1ccccc1)C(=O)NC(CC(=O)O)C(=O)CF (stereo partly drawn) [Cbz-Val-Asp-CH2F, Z-Val-Asp-fmk] |  |  |  |  | 8.17 | 46% | 57% | well tolerated | no changes
